This note sets out measurements from patent US20130296370A1, “COMPOSITION COMPRISING A PHOTOACTIVATABLE LARVICIDE” (UNIVERSITA DEGLI STUDI DI PADOVA, priority 2010, published 2013).

Data set [1] is described as follows: Photostability of C14 porphyrin in aqueous medium. The class given is physicochemical. The following applies: 2.5 μM in PBS; visible light 20 mW/cm^2 for up to 60 minutes. Here is the method:
The photostability of the C14 porphyrin was determined in phosphate-buffered saline (PBS) upon illumination of a 2.5 μM porphyrin solution (initial absorbance around 0.5 at 424 nm) with white light (400-800 nm), which was isolated from the emission of a quartz-halogen lamp equipped with broad band filters to eliminate UV and infrared radiation. The light source was supplied by Teclas (Lugano, Switzerland), and operated at a fluence rate of 20 mW/cm^2. During irradiation the porphyrin solution was kept in agitation on a magnetic stirrer at room temperature. The concentration of the porphyrin in the aqueous solution was monitored spectrophotometrically at different irradiation times up to 60 min, and the photostability was expressed as the percent residual absorbance referred to the absorbance measured before irradiation.
The stability of C14 to the effect of full spectrum visible light was studied for a 2.5 μM porphyrin solution in PBS. The exposure of the porphyrin to visible light at a fluence rate of 20 mW/cm^2 for up to 60 minutes caused a decrease in the overall absorbance of less than 10%, which involved the whole set of bands in the blue, green and red spectral region. […]

The subject of a further data set is An. stephensi. Nature of the data set: Laboratory-scale tray larvicide test. Format: in vivo. The conditions noted are these: carrier mouse food; 6 mg per tray; loading concentration 0.5 μM; fluorescent lamp. Here is the method: (§1) Laboratory strains of Anopheles stephensi, M and S (Kisumu), chromosomal forms of An. gambiae, An. arabiensis and Aedes aegypti, as well as field-collected Anopheles spp. and Aedes spp. larvae were used. Laboratory mosquitoes were maintained at 28-30° C., >90% RH and a photoperiod of 12 h. Light intensity ranged between 0.5 mW/cm^2 (fluorescent lamp) and 185 mW/cm^2 (sunlight).
(§2) C12 or C14 porphyrin solutions at 5-100 μM concentrations were pre-incubated at room temperature in the darkness with 15-60 mg of carrier (either Eudragit or ground mouse food or cat food) for 4-12 hours under gentle shaking. After incubation the solutions were filtered, and the loaded carrier was dried at room temperature or in an oven (45° C.).
(§3) One litre capacity, transparent plastic trays containing wells with each 500 ml water and 6-60 mg of the composition of the present invention were prepared. Batches of 60-100 L2, L3 or L4 larvae were introduced into the trays after sunset (or artificial light off). Larval mortality was evaluated the next day starting from 8.00 am, and the time required to reach at least 90% mortality was recorded. Larvae not moving or not showing an escaping response at probing were defined as dead or dying, and counted together (Tables 2 and 3). Pupae occasionally formed throughout the irradiation time were discarded and excluded from the evaluation. An equal number of batches of larvae prepared in the same way were kept in continuous darkness and mortality was evaluated similarly, to assess toxicity in the dark.
Light intensity range: 0.5-185 mW/cm^2.

A further data set deals with Aedes aegypti. Description: Laboratory-scale tray larvicide test. The class given is in vivo. The conditions noted are these: carrier mouse food; 70 mg per tray; loading concentration 5 μM; fluorescent lamp. Here is the method:
as §1, §2
as §3, with “Batches” for “One litre capacity, transparent plastic trays containing wells with each 500 ml water and 6-60 mg of the composition of the present invention were prepared. Batches”, “dark. […]” for “dark.”

For the next data set, the system named is A. aegypti larvae. Description: Larvicidal efficacy of C14 porphyrin-loaded PFP. Format: in vivo. The following applies: 3 hours irradiation. Here is the method:
Food particles (70 mg) were added at the time of introduction of the larvae (n=50, see methods for details). Arithmetic means of percent dead, dying and living larvae after 3 hours irradiation (intensity 1.0-4.0 mW/cm^2). Error bars represent standard deviations, (n=3 replicates of 50 larvae each).
Trays containing 5 μM C14 porphyrin solution and 70 mg PFP (wherein PFP means powdered food pellet (PFP) with final particle diameter of 5-500 μm diameter obtained by crushing a standard food pellet for laboratory rodents, namely 4RF18 GLP (Mucedola Srl, Italy) using an electric blender and then sieving at mesh diameter 500 μm) were incubated at 28±2° C. for 5 days in the dark. The solution was then filtered using Whatman qualitative filter papers (Whatman International Ltd., UK). The eluted C14 solution was conserved, and the incubated PFP retained on the filter paper was washed with 10 ml distilled water before further use. Experimental groups were designed as follows: 1) filtered, C14-incubated PFP in spring water (group A); 2) C14 solution eluate, added with 70 mg fresh PFP (group B); 3) 5 μM C14 solution incubated without PFP for 5 days in the dark, added with 70 mg fresh PFP (group C); 4) freshly prepared 5 μM C14 solution, added with 70 mg PFP (group D); 5) spring water added with 70 mg fresh PFP (control group). Fifty larvae, fasted for 24 hours, were added to each tray and incubated in the dark for 12 hours. The treated or untreated PFP was added at the time of introduction of the larvae, in all the experimental groups. The trays were then exposed to a light intensity of 1.0-4.0 mW/cm^2 and dead, dying and living larvae were counted 1 to 3 hours after the beginning of the irradiation.

Setting [2] is: group B: C14 solution eluate with 70 mg fresh PFP.

By mortality is commonly meant the percentage killed. Regarding `CCCCCCCCCCCCCC[n+]1ccc(-c2c3nc(c(-c4cc[n+](C)cc4)c4ccc([nH]4)c(-c4cc[n+](C)cc4)c4nc(c(-c5cc[n+](C)cc5)c5ccc2[nH]5)C=C4)C=C3)cc1.Cc1ccc(S(=O)(=O)[O-])cc1.Cc1ccc(S(=O)(=O)[O-])cc1.Cc1ccc(S(=O)(=O)[O-])cc1.Cc1ccc(S(=O)(=O)[O-])cc1` [C14, meso-tri(N-methyl-pyridyl), mono(N-tetradecyl-pyridyl)porphine], the “decrease in the overall absorbance” value in data set [1] is on record as “less than 10%”. Besides, the “Time to reach ≧90% mortality” value with An. stephensi was determined as 1 h; in the data set with Aedes aegypti, 3 h. This compound displayed a dying larvae in the data set on A. aegypti larvae (setting [2]) of 49.8%. The mortality with A. aegypti larvae (setting [2]) was 38.4%; in the data set with A. aegypti larvae (group C: 5 μM C14 solution incubated 5 days in the dark without PFP, fresh PFP added), 78.2%; in the data set with A. aegypti larvae (group D: freshly prepared 5 μM C14 solution with 70 mg PFP) it was 87.1%.
